# Results from article PMC6687188, “Novel lactate dehydrogenase inhibitors with in vivo efficacy against Cryptosporidium parvum” (PLoS Pathogens, 2019).
# Molecular target: recombinant CpLDH protein (Cryptosporidium parvum, UniProt Q9GT92, F198L/K295E/R251K)
row,Compound,MEAN CpLDH INHIBITION (%)
1,COc1ccc(C2C(C)C(=O)C(C)C(c3ccc(OC)cc3)N2N=O)cc1 (stereo not shown) [NSC626734],-0.09%
2,O=C1c2ccccc2C(=O)c2sc(Nc3ccc(Cl)cc3)nc21 [NSC631529],-18.60%
3,CC1=CC(C)(C)N=C2SC(c3ccc(N)cc3)=NN12 [NSC640624],-5.57%
4,O=C(O)c1ccc(Nc2c3ccccc3nc3ccccc23)cc1.[Na+] [NSC235082],-28.09%
5,CC(C)C1(Cl)CCC2C3(C)CCCC(C)(C(=O)O)C3CC(Cl)C2(Cl)C1Cl (stereo not shown) [NSC2979],-29.91%
6,O=C(O)c1cc(CCc2cc(O)ccc2O)ccc1O [NSC655255],-35.82%
7,CC(C)(O)CCC(O)C(C)(O)C1CCC2(O)C3=CC(=O)C4(O)CC(O)C(O)CC4(C)C3CCC12C.CC(C)(O)CCC(O)C(C)(O)C1CCC2(O)C3=CC(=O)C4CC(O)C(O)CC4(C)C3CCC12C (stereo not shown) [NSC115493],-100.16%
8,C=C1C(=O)O[C@H]2/C=C(/CO)[C@H](OC(C)=O)C[C@H](O)/C(C)=C\[C@H](OC(=O)[C@@H](C)CC)[C@H]12 [NSC292663],-63.04%
9,N=C1C=C(N)C(=O)c2[nH]c(=O)ccc21 [NSC111041],-37.64%
10,CO[C@H]1/C=C\C=C(/C)C(=O)NC2=CC(=O)C(N)=C(C[C@@H](C)C[C@H](OC)[C@H](O)[C@@H](C)/C=C(\C)[C@@H]1OC(N)=O)C2=O [NSC255109],-205.22%
11,COC1C(C)OC(OC2CC(C)(O)Cc3cc4c(c(O)c32)C(=O)c2c(O)cc3c(c2C4=O)OC2OC3(C)C(O)C(N(C)C)C2O)C(OC)C1(C)OC (stereo not shown) [NSC265450],-83.48%
12,CC(C)C1=C(O)C2=C(C(=O)C1=O)[C@@]1(C)CCCC(C)(C)[C@@H]1C[C@H]2O [NSC294577],-16.31%
13,C/C(NNC(=O)c1ccccc1O)=C1\C=Nc2ccccc2S1 [NSC635121],0.03%
14,O=C1Nc2ccc(Br)cc2/C1=C/C(=O)c1ccccc1 [NSC294961],-25.63%
15,O=C(CC1(O)C(=O)Nc2c(Cl)cc(Cl)cc21)c1ccc([N+](=O)[O-])cc1 (stereo not shown) [NSC635326],-38.78%
16,OCC1OC(n2cnc3c(=S)nc[nH]c32)C(O)C1O (stereo not shown) [NSC406021],-17.89%
17,Cc1cc(O)c(C(C)C)cc1C1(c2cc(C(C)C)c(O)cc2C)OC(=O)c2ccccc21 [NSC2186],-64.59%
18,CC(=O)[O-].Cc1c2cc[n+](CCN3CCCCC3)cc2c(C)c2c1[nH]c1ccc(O)cc12 [NSC311153],-30.69%
19,CC(C)(C)N(Cc1ccc2c(c1)OCO2)C(=O)/C=C\[S+]([O-])c1ccccc1 (stereo not shown) [NSC705330],-49.87%
20,O=[N+]([O-])c1cc(-c2nc(=S)[nH][nH]2)ccc1O [NSC635563],-59.68%
21,BrC(/C=N/Nc1nnc(-c2ccccc2)c(-c2ccccc2)n1)C(Br)c1ccccc1 (stereo not shown) [NSC640638],-14.60%
22,O=C([O][Hg][CH2]C1COC([CH2][Hg][O]C(=O)c2ccccc2)CO1)c1ccccc1 (stereo not shown) [NSC30916],-5.35%

row,Compound,MEAN CpLDH INHIBITION (%)
1,Oc1[nH]c2ccccc2c1N=Nc1nc(-c2ccc(Br)cc2)cs1 [NSC657456],-18.36%
2,CC1=C/C(=C2/N=C(N(C)C)SS2)C(C)=N1.[O-][Cl+3]([O-])([O-])O [NSC622690],-0.50%
3,N[C@H](C(=O)O)[C@H]1ON=C(Cl)[C@H]1O [NSC176324],-9.23%
4,Cc1cc(C)c(NC(=O)/C=C/c2ccccc2)c(C)c1 [NSC191384],-34.30%
5,Oc1ccc(/C=N/NC(=S)Nc2cccnc2)nc1 [NSC185065],-8.17%
6,O=C(CC1(O)C(=O)Nc2c(Cl)ccc(Cl)c21)c1ccc(Cl)cc1 (stereo not shown) [NSC635437],-7.08%
7,CC(C)c1oc(=O)cc2c1[C@@H](O)[C@H]1OC(=O)[C@@]3(C)[C@@H](O)[C@H]4O[C@H]4[C@@]2(C)[C@@H]13 [NSC211500],-13.24%
8,C=C1C(=O)C23CC[C@@H]4C(C)(C(=O)OC)CCCC4(C)[C@@H]2CCC1(O)C3 (stereo partly shown) [NSC620358],-24.86%
9,C[n+]1ccc(-c2cc[n+](C)cc2)cc1.[Cl-].[Cl-] [NSC263500],-58.44%
10,CN(C)CCCCN1CCc2c(n(C)c3ccccc23)C1=O.Cl [NSC658388],-30.45%
11,COC(=O)c1ccccc1NC(=O)C(=O)CC(=O)c1ccccc1NC1=CC(=O)C(=O)c2ccccc21 [NSC641240],-190.19%
12,CC(=O)O[C@H]1C[C@H](O[C@H]2[C@@H](O)C[C@H](O[C@H]3[C@@H](O)C[C@H](O[C@H]4CC[C@@]5(C)[C@H](CC[C@@H]6[C@@H]5CC[C@]5(C)[C@@H](C7=CC(=O)OC7)CC[C@]65O)C4)O[C@@H]3C)O[C@@H]2C)O[C@H](C)[C@H]1O[C@@H]1O[C@H](CO)[C@@H](O)[C@H](O)[C@H]1O [NSC7532],-151.91%
13,Cc1cc(NC(=O)NC(=O)c2ccccc2NC(=O)CN)ccc1Oc1ncc(Br)cn1.Cl [NSC654259],-46.44%
14,O=C(OCC12CC3CC(CC(C3)C1)C2)c1ccc(NCc2cc(O)ccc2O)cc1 [NSC689857],-0.01%
15,O=C1c2ccccc2C(=O)C1C(c1ccc([N+](=O)[O-])cc1)C1C(=O)c2ccccc2C1=O [NSC643148],-12.75%
16,O=C1C=C(N2CCNCC2)C(=O)c2c(O)ccc(O)c21 [NSC658144],-3.51%
17,Nc1nc(SCCc2ccccc2)c2[nH]cnc2n1 [NSC35866],-7.39%
18,COc1ccc2c(c1[N+](=O)[O-])CC[C@@H]1[C@@H]2CC[C@]2(C)C(=O)CC[C@@H]12 [NSC321803],-29.51%
19,COCCOC1=C(Cl)C(=O)c2c(O)ccc(O)c2C1=O [NSC659997],-9.35%
20,COc1ccc(/C=C2\CCc3ccccc3C2=O)cc1OC [NSC643175],-25.23%
21,COC(=O)/C(=N\NC(=O)c1ccccc1O)C(C#N)c1ccccc1 (stereo not shown) [NSC635337],-28.29%
22,CN(C)CCCN1c2ccc3ccccc3c2Sc2cccc(Cl)c21 [NSC24113],-11.52%

row,Compound,MEAN CpLDH INHIBITION (%)
1,CC[C@@]1(O)C[C@H](O[C@H]2C[C@H](N(C)C)[C@H](O[C@H]3C[C@@H]4O[C@H]5CC(=O)[C@H](C)O[C@H]5O[C@@H]4[C@H](C)O3)[C@H](C)O2)c2c(cc3c(c2O)C(=O)c2c(O)ccc(O)c2C3=O)[C@H]1C(=O)OC [NSC243023],-140.35%
2,O=C(CC1(O)C(=O)Nc2c(Cl)cc(Cl)cc21)c1cccc2ccccc12 (stereo not shown) [NSC635328],-47.14%
3,CC(C)=CCC1=C(O)c2ccccc2C(=O)C1=O [NSC11905],-39.26%
4,C[C@@H]1C[C@H]2CC[C@H](O2)[C@H](C)C(=O)O[C@@H](C)C[C@@H]2CC[C@@H](O2)[C@@H](C)C(=O)O[C@H](C)C[C@H]2CC[C@H](O2)[C@H](C)C(=O)O[C@@H](C)C[C@@H]2CC[C@@H](O2)[C@@H](C)C(=O)O1 [NSC52141],-100.84%
5,c1ccc(-c2cccc(-c3ccccn3)n2)nc1 [NSC3905],-48.97%
6,NC(=O)C1=C[C@H]2[C@@H]3C=C[C@@]2(O)C(=O)O[C@@H]3O1 [NSC357683],-9.72%
7,NC(N)=N/N=C(\c1ccc(Cl)cc1)C1CC1 [NSC74420],-7.03%
8,CC(C)=CC1C(C(=O)O)C1(C)C (stereo not shown) [NSC11779],-22.15%
9,CN1CC[C@]23c4ccccc4N[C@H]1[C@]21CCN(C)[C@H]3Nc2ccccc21 [NSC99016],-25.29%
10,CN(C)CCOc1ccc(I)cc1Cc1ccccc1.Cl [NSC11930],-34.92%
11,CCN(CC)CCOC(=O)Cc1cccc2c(=O)cc(-c3ccccc3)oc12 [NSC293015],-3.81%
12,C[C@@H]1O[C@@H](O[C@@H]2C=C3CC[C@@H]4[C@H](CC[C@]5(C)[C@@H](c6ccc(=O)oc6)CC[C@]45O)[C@@]3(C)CC2)[C@H](O)[C@H](O)[C@H]1O[C@@H]1O[C@H](CO)[C@@H](O)[C@H](O)[C@H]1O [NSC7525],-34.67%
13,CC(C)N.CC(C)N.[Cl-].[Cl-].[OH-].[OH-].[Pt] [NSC256927],-46.96%
14,CC1=C(N2CC2)C(=O)C(CO)=C(N2CC2)C1=O [NSC697726],-69.94%
15,CC(C)CCCCCCCCCCCCC(=O)NCC(=O)NC1C(O)C(O)C(Nc2ncnc3nc[nH]c23)OC1C(O)CO (stereo not shown) [NSC65104],-113.50%
16,C=C(C#N)C(=O)OCC(CC)CC.C=C(C#N)C(=O)OCC(CC)CC.CS(C)=O.CS(C)=O.Nc1c(N=Nc2ccc(-c3ccc(N=Nc4cc(S(=O)(=O)[O-])c5ccccc5c4N)cc3)cc2)cc(S(=O)(=O)[O-])c2ccccc12.[Pt+2] [NSC615593],-2.09%
17,O=C1/C(=C\c2ccc(Cl)c(Cl)c2)CN(C(=O)CCN2CCOCC2)C/C1=C\c1ccc(Cl)c(Cl)c1 [NSC638646],-17.60%
18,CC1=C(N2CC2)C(=O)c2nc3n(c2C1=O)CCC3OC(=O)CCl (stereo not shown) [NSC651080],-28.90%
19,Cc1cc([N+](=O)[O-])ccc1Nc1cccc(Cl)c1C [NSC625641],-6.68%
20,CC(=O)OCc1c2ccccc2c(C)c2c1cc(F)c1ccccc12 [NSC623135],-28.47%
